According to US20120190743A1, “COMPOUNDS FOR TREATING DISORDERS OR DISEASES ASSOCIATED WITH NEUROKININ 2 RECEPTOR ACTIVITY” (UNITED PARAGON ASSOCIATES INC., priority 2009, published 2012):

What was measured:
[1] = target: T1, human NK2 receptor (Homo sapiens, UniProt P21452); assay: Cellular/functional Ca2+ flux antagonist assay, CHO-K1 cells expressing recombinant human NK2 receptor; assay type: cell-based; conditions: 3×10^−7 M to 1×10^−4 M, agonist [bAla]-NKA (4-10) 0.3 nM, FIG. 12
T1 construct: expressed in transfected cells; host or cells: Chinese Hamster Ovary (CHO) cells
T1 sequence (P21452 1-398): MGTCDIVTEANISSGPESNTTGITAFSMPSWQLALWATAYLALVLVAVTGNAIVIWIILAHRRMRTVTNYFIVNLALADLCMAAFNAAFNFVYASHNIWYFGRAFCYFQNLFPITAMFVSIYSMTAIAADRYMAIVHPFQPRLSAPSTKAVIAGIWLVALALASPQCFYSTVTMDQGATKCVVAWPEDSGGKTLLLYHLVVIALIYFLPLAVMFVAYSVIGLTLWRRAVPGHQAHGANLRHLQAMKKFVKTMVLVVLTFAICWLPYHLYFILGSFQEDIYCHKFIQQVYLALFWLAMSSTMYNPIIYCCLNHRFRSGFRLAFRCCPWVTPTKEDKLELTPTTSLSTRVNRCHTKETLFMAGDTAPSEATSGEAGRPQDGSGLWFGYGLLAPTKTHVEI
Method: 6-methyl-myristic acid 2,3-dihydroxypropyl ester was synthesized as described above, and myristic acid 2,3-dihydroxypropyl ester was obtained. They were each prepared as solutions by addition of dimethyl sulfoxide (DMSO) to a concentration of 10 mM. These compounds were then used in cellular/functional calcium flux agonist and antagonist assays to determine the effect the compounds have on human NK2 receptor activity as measured by changes intracellular calcium measurements. These assays were carried out based on the method of Gerard et al.
The NK2 receptor antagonist assay was performed essentially as follows. CHO-K1 cells stably expressing recombinant human NK2 receptor were plated on mixed extracellular matrix overnight in complete media. One hour before the assay, the media was replaced with Hank's Buffered Salt Solution (HBSS) containing 0.1% bovine serum albumin. The cells were then loaded with dye that measures intracellular calcium and baseline measurements of intracellular calcium were taken. […] Fluorescence at 485 nm excitation/515 nm emission was measured every 2 seconds for at least two minutes. The peak height of fluorescence in each of the wells receiving controls, compound 2 or compound 3 was recorded and compared to the peak height of fluorescence in the wells receiving only the agonist. […]

[2] = target: T1, human NK2 receptor; assay: [125I]neurokinin A radioligand binding assay, CHO cells expressing recombinant human NK2 receptor; conditions: various concentrations
Method: The contents of Formulation A capsules were dissolved using various solvents and extracted using four different processes, as described in detail below. […] These isolates were called: Sample #19 Top Isolate, Sample #19 Bottom Isolate, Sample #20 Top Isolate, Sample #20 Bottom Isolate, Fraction X Isolate and Sample #2 Isolate. These isolates were then each tested in the radioligand binding assay.

Row | SMILES | antagonist activity in functional NK2 receptor antagonist assay (in words) [1] | effect on neurokinin A binding to the NK2 receptor (in words) [2]
1 | CCCCCCCCC(C)CCCCC(=O)OCC(O)CO (stereo not shown) [6-methyl-myristic acid 2,3-dihydroxypropyl ester] | displayed antagonist activity | inhibited the ability of neurokinin A to bind the NK2 receptor in a concentration-dependent manner
2 | CCCCCCCCCCCCCC(=O)OCC(O)CO (stereo not shown) [myristic acid 2,3-dihydroxypropyl ester] | displayed antagonist activity | inhibited the ability of neurokinin A to bind the NK2 receptor
